The results in this text go back to patent publication US20080138391A1, “SKIN-FRIENDLY DRUG COMPLEXES FOR TRANSDERMAL ADMINISTRATION” (priority 2006, published 2008).

A short description of this data set: Appearance of the composition and solubilization of the drug. Format: physicochemical. As for the experimental part: Following here is an exemplary description of the manufacturing process used to make the pharmaceutical compositions of the present invention. Generally, the active agent is introduced either alone or as a solution in a colloidal dispersion of carbomer. […] If desired, further ingredients such as cosolvents, buffering agents, antioxidants, preservatives, permeation enhancers, etc, as mentioned herein above were added under mechanical stirring.

As to `CCCN(CCC)CCc1cccc2c1CC(=O)N2` [ropinirole free base, ropinirole], the “Amount of ropinirole free base solubilized in water as a result of complexation with carbomer” value (complexation with carbomer, alcohol-free) is recorded as “at least 3.00 % w/w”. The “Solubility of ropinirole free base in water” value (no complexation) was “practically insoluble in water”.
